Measured values as given in article PMC7932537, “Quantitative profiling of protease specificity” (PLoS Computational Biology, 2021).

What was measured:
MMP-2 [1] = experiment: Substrate phage display with NGS: relative probability (RP) of P3-P1' tetramer clusters; format: biochemical, human; settings: MMP2;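 note: ratio of tetramer probability after protease selection to that in naive phage library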
MMP-2 [2] = biological target: T1, MMP-2 (Homo sapiens, UniProt P08253); experiment: K(obs) of individual phage substrates (set of 1369); format: biochemical; settings: MMP2
T1 sequence (P08253 110-660): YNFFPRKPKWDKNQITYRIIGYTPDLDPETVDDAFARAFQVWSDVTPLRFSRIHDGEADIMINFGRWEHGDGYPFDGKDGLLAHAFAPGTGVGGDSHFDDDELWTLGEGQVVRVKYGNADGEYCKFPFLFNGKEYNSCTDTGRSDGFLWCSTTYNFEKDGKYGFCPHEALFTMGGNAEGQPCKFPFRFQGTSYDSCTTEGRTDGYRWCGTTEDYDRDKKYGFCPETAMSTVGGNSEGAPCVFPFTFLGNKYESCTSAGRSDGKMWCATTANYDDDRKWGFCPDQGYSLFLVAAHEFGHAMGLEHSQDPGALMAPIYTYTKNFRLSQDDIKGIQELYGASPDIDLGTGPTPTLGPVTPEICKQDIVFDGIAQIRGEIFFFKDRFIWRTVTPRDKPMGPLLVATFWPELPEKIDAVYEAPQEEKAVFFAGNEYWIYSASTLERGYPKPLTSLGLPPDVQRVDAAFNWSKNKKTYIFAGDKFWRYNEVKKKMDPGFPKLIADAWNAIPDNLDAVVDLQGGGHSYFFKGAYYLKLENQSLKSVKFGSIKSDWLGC

MMP-9 = MMP-9 (Homo sapiens, UniProt P14780); experiment: as above; format: biochemical; settings: MMP9
MMP-9, sequence (P14780 94-707): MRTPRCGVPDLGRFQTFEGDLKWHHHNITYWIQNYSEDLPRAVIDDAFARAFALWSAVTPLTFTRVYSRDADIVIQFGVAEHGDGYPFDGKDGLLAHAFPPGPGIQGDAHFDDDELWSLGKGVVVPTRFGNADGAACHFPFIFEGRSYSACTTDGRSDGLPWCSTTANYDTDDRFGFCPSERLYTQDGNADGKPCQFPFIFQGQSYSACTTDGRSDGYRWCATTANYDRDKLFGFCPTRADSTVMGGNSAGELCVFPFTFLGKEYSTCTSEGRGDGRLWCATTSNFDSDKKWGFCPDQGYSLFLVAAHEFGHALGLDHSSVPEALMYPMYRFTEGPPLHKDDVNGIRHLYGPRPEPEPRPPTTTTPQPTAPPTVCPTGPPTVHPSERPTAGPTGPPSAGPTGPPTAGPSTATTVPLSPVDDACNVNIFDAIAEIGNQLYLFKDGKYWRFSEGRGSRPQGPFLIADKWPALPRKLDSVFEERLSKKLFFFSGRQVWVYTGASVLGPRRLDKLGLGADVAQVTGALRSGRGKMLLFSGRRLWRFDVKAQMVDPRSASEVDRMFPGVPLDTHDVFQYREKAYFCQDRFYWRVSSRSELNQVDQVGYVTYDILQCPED

[3] = RP of the P3-P1' tetramer contained in the substrate (substrate phage display with NGS)
[4] = individual phage substrates, set of 1369 peptides, cleavage position marked by hyphen in sequence
[5] = individual phage substrates, set of 1369 peptides, hyphen in sequence marks cleavage position
[6] = RP of the P3-P1' tetramer contained in the substrate
[7] = individual phage substrate of the set of 1369 peptides, cleavage position marked by '-'
[8] = individual phage substrate of the set of 1369 peptides, dash in the sequence marks the cleavage position

Kobs (MMP-2 [2]; [4]) [M⁻¹ s⁻¹]	Kobs (MMP-9; [5]) [M⁻¹ s⁻¹]	Kobs (MMP-2 [2]; [7]) [M⁻¹ s⁻¹]	Kobs (MMP-9; [8]) [M⁻¹ s⁻¹]	Substance	relative probability (RP) (MMP-2 [1]; [3])	relative probability (RP) (MMP-2 [1]; [6])
–	–	8941.32	56.119	GRVAY-LSTAS	–	26.5348
–	–	3741.87	0	SGMAA-LKRTA	–	32.6562
–	–	261.974	0	NRVEM-LTASG	–	2.124
–	–	3253.29	654.784	AYGSH-LTASG	–	4.2785
–	–	12792.1	619.843	HRWSA-LTASG	–	25.8217
12792.1	12792.1	–	–	GTPSA-LTTAS	36.1873	–
3637.04	323.705	–	–	ISVNY-LTASG	8.427	–
–	–	1660.66	4613.14	SGARN-LLWTA	–	24.6947
12792.1	12792.1	–	–	GLPYA-LYTAS	33.2554	–
0	0	–	–	GIFWH-LRTAS	0	–
355.093	231.616	–	–	GLGLN-LTASG	0.5789	–
–	–	12792.1	10866.7	GRPRS-LTASG	–	33.3704
1112.44	27.918	–	–	GGVSF-LLTAS	5.918	–
8941.32	7815.03	–	–	GMAWG-LRTAS	17.7408	–
–	–	12792.1	12792.1	GAPRS-LQTAS	–	33.3704
3079.62	323.705	–	–	NMWAH-LTASG	7.453	–

Kobs (MMP-2 [2]; [4]) [M⁻¹ s⁻¹]	Kobs (MMP-9; [5]) [M⁻¹ s⁻¹]	Kobs (MMP-2 [2]; [7]) [M⁻¹ s⁻¹]	Kobs (MMP-9; [8]) [M⁻¹ s⁻¹]	Substance	relative probability (RP) (MMP-2 [1]; [3])	relative probability (RP) (MMP-2 [1]; [6])
2996.69	4763.33	–	–	RNPEW-MTASG	12.3271	–
171.876	292.668	–	–	GVLYH-LQTAS	4.529	–
–	–	418.952	619.843	HVWMN-LTASG	–	0
–	–	0	0	PAYFP-LTASG	–	0.1432
0	56.119	–	–	ASTLH-LTASG	2.471	–
2687.73	0	–	–	AHFAH-LTASG	19.6504	–
10866.7	10866.7	–	–	SPPLA-LTASG	34.4921	–
231.616	142.481	–	–	GKVSE-LITAS	24.0996	–
1112.44	386.839	–	–	ISWLN-LTASG	0.1218	–
–	–	7015.91	1513.13	TKMAW-LTASG	–	31.5866
–	–	12792.1	113.394	MSWSA-LTASG	–	25.8217
–	–	1283.43	0	RTGLY-LTASG	–	0.07615
386.839	27.918	–	–	GSGRH-LIKVT	3.598	–
551.253	231.616	–	–	SGGSG-LRVKR	1.9698	–
–	–	1925.41	323.705	VVLMG-LTASG	–	28.5499

The remaining lines, values behind:

Substance	Kobs (MMP-2 [2]; [4]) [M⁻¹ s⁻¹]	Kobs (MMP-9; [5]) [M⁻¹ s⁻¹]	Kobs (MMP-2 [2]; [7]) [M⁻¹ s⁻¹]	Kobs (MMP-9; [8]) [M⁻¹ s⁻¹]	relative probability (RP) (MMP-2 [1]; [3])	relative probability (RP) (MMP-2 [1]; [6])
VNARM-LTASG	1196.62	2218.08	–	–	2.9901	–
YSATN-LTASG	12792.1	484.315	–	–	16.0897	–
DAVYG-LTASG	–	–	1925.41	2615.58	–	17.3788
SKMAH-LTASG	–	–	2409.72	0	–	29.5006
GCVRF-LQTAS	–	–	1239.69	1071.29	–	15.0438
MGMWH-LTASG	0	142.481	–	–	0.2013	–
KMPSF-LTASG	8321.48	8941.32	–	–	29.537	–
DSLAW-LTASG	10866.7	1561.44	–	–	22.0358	–
PKGYA-LTASG	–	–	2615.58	3850.82	–	0.5867
GFWSS-LRTAS	–	–	5461.43	0	–	16.6561
QEPRN-ITASG	–	–	12792.1	12792.1	–	31.9621
SGPRM-LVLTA	–	–	4082.43	6688.74	–	30.5973
GNVAN-LTASG	12792.1	1327.88	–	–	34.9662	–
WMPLG-MTASG	–	–	5461.43	12792.1	–	34.1118
GNVRS-LITAS	–	–	12792.1	2476.66	–	12.3051
GYIQS-LFTAS	5461.43	0	–	–	25.2682	–
DKLAS-LTASG	–	–	12792.1	0	–	31.1996
AMPLH-MTASG	6688.74	7386.83	–	–	30.0095	–
KLGRA-LTASG	–	–	2615.58	4763.33	–	7.944
VIYGN-LTASG	–	–	8941.32	0	–	24.0019

Substance	Kobs (MMP-2 [2]; [4]) [M⁻¹ s⁻¹]	Kobs (MMP-9; [5]) [M⁻¹ s⁻¹]	Kobs (MMP-2 [2]; [7]) [M⁻¹ s⁻¹]	Kobs (MMP-9; [8]) [M⁻¹ s⁻¹]	relative probability (RP) (MMP-2 [1]; [3])	relative probability (RP) (MMP-2 [1]; [6])
VSSYW-LTASG	951.362	1981.53	–	–	0.9791	–
GWWMN-LTASG	1071.29	836.403	–	–	0	–
VRLNY-LTASG	4763.33	0	–	–	12.3459	–
DRPNY-LTASG	–	–	4082.43	1196.62	–	17.2533
SGPRA-LKGTA	–	–	12792.1	12792.1	–	35.2345
EVARA-WTASG	7386.83	1513.13	–	–	17.4628	–
VLWAG-LTASG	12792.1	3344.37	–	–	28.1709	–
GWPAG-LTTAS	–	–	12792.1	12792.1	–	36.0156
DLPAG-LTASG	–	–	12792.1	8321.48	–	36.0156
LQSMN-LTASG	0	1239.69	–	–	2.165	–
ERIYA-LTASG	2687.73	7386.83	–	–	6.967	–
EHAWN-LTASG	–	–	2218.08	2280.5	–	14.0049
SGVRF-LKGTA	5269.78	12792.1	–	–	15.0438	–
GTPMQ-LYTAS	–	–	5667.28	12792.1	–	27.6586
GGSGH-LLGMS	–	–	2097.28	690.17	–	1.458
GIAHQ-LKTAS	726.013	201.585	–	–	4.1	–
PQVWY-LTASG	4205.91	5889.62	–	–	3.667	–
GVYAH-LLTAS	–	–	323.705	171.876	–	18.7061
GTLAA-MSTAS	4205.91	0	–	–	30.6825	–
